{
  "source": "patent US5877026A",
  "about": "“Analgesic peptides from venom of Grammostola spatulata and use thereof” (priority 1998, dated 1999)",
  "format_in_all_cases": "in vivo, rat",
  "key": {"opioid receptors": {"test_system": "opioid receptors", "assay": "Opioid receptor testing (opioid antagonist pretreatment)", "description": "Animals were then tested in the tail flick test (Example 3) and von Frey tests (Example 5)."}, "Sprague Dawley rats [1]": {"test_system": "Sprague Dawley rats", "conditions": "i.th.; two treatment arms"}, "Sprague-Dawley rats": {"test_system": "Sprague-Dawley rats", "assay": "von Frey filament threshold", "from_the_text": "In this test filaments of increasing thickness are applied to the dorsal surface of a hindlimb until the rat either voluntarily removes the appendage with a forcible escape movement or vocalizes. The thickness of the filaments are arbitrarily labelled with a value which can be transformed into a grams force reading according to the following equation: [formula] Data are expressed either as absolute gram force values or a percentage of the maximum possible effect (MPE) as described in the following equation: [formula]"}, "Sprague Dawley rats [2]": {"test_system": "Sprague Dawley rats", "assay": "Acute inflammatory pain, carrageenan paw withdrawal latency", "conditions": "for Mean Latency Time In Seconds ± SEM, 30 minutes post treatment / Mean Latency Time In Seconds ± SEM, 60 minutes post treatment: 3 nmol intrathecal cannula; for Mean Latency Time In Seconds ± SEM, 30 minutes post treatment: given after 150 min post carrageenan; for Mean Latency Time In Seconds ± SEM, 60 minutes post treatment: predetermined cut-off value 20.8 sec", "description": "Tissue injury results in inflammation and hyperalgesia (i.e. increased magnitude or duration of pain response to supra threshold noxious stimuli) at both the site of injury and at adjacent tissue sites. To assess the anti-hyperalgesic activity of GsAF II in inflammatory pain conditions, paw withdrawal latencies were determined in adult 350-400 gram male Sprague Dawley rats following the unilateral injection of carrageenan, a seaweed extract, into the hindpaw in accordance with the method of Hargreaves et al, Pain, 32:77-88, 1988. Briefly, withdrawal latencies are measured by placing the rat on a glass plate and focusing radiant heat from the underside of the plate toward the hindpaw surface. Latencies values are recorded in seconds to withdrawal of the hindpaw from the surface of the plate. Basal measurements are made prior to injection of the carrageenan (4 mg/hindpaw), followed by a measurement at 150 min post carrageenan injection to obtain the level of hyperalgesic response. Subsequent to the second measurement, GsAF II or vehicle (i.e. 0:1% BSA/saline) is administered through an indwelling intrathecal cannula positioned within the lumbar enlargement of the spinal cord. Anti-hyperalgesic activity is determined by measuring paw withdrawal latencies at various time intervals following compound administration. Concurrent with the paw withdrawal latencies, physical measurements of paw volume and paw temperature are recorded to detect anti-inflammatory and anti-pyretic activities."}, "[3]": {"conditions": "3 nmol group (n = 4), before compound administration"}},
  "note": "Where no end group is shown, it is not given here.",
  "data": [
    {"substance": "Tyr-Cys-Gln-Lys-Trp-Leu-Trp-Thr-Cys-Asp-Ser-Glu-Arg-Lys-Cys-Cys-Glu-Asp-Met-Val-Cys-Arg-Leu-Trp-Cys-Lys-Lys-Arg-Leu-NH2 (YCQKWLWTCDSERKCCEDMVCRLWCKKRL-NH2; cysteine pairing not given here) [GsAF I]", "values": [
      {"measurement": "effect of B-funaltrexamine pretreatment on analgesic activity", "setting": "opioid receptors; B-funaltrexamine 5 micrograms i.th. 18 hours prior, hot plate test or formalin test", "value": "failed to inhibit"},
      {"measurement": "effect of intrathecal naloxone on analgesic response", "setting": "opioid receptors; naloxone 50 μg i.th. immediately prior, 180 pmoles i.th., measured 10 minutes later", "value": "failed to inhibit"},
      {"measurement": "effect of naloxone pretreatment on analgesic activity", "setting": "opioid receptors; naloxone 10mg/kg subcutaneous 5 minutes prior, 180 pmoles i.th., measured 10 minutes later, tail flick and von Frey tests", "value": "failed to inhibit"},
      {"measurement": "dose response properties, morphine treatment versus saline arm (cross tolerance)", "setting": "Sprague Dawley rats [1]", "value": "not significantly different"},
      {"measurement": "MPE, von Frey threshold", "setting": "Sprague-Dawley rats; 18 picomole (6.6 nanograms), one hour pretreatment", "value": 22, "unit": "% MPE"},
      {"measurement": "MPE, von Frey threshold", "setting": "Sprague-Dawley rats; 18 picomoles (66 nanograms), 30 minutes post injection", "value": 24, "unit": "% MPE"},
      {"measurement": "confounding side effects", "setting": "Sprague-Dawley rats; 180 and 18 picomoles", "value": "No confounding side effects were present"},
      {"measurement": "MPE, von Frey threshold", "setting": "Sprague-Dawley rats; 180 picomole, one hour pretreatment", "value": 100, "unit": "% MPE"},
      {"measurement": "MPE, von Frey threshold", "setting": "Sprague-Dawley rats; 180 picomoles (666 nanograms), 30 minutes post injection", "value": 93, "unit": "% MPE"}
    ]},
    {"substance": "YCQKWMWTCDEERKCCEGLVCRLWCKKKIEW (cysteine pairing not given here) [GsAF II]", "values": [
      {"measurement": "Mean Latency Time In Seconds ± SEM, 150 minutes post carrageenan injection", "setting": "Sprague Dawley rats [2]; [3]", "value": "3.0 ± 0.81", "unit": "s"},
      {"measurement": "Mean Latency Time In Seconds ± SEM, base latency prior to carrageenan injection", "setting": "Sprague Dawley rats [2]; [3]", "value": "8.3 ± 1.2", "unit": "s"},
      {"measurement": "Mean Latency Time In Seconds ± SEM, 30 minutes post treatment", "setting": "Sprague Dawley rats [2]", "value": "17.82 ± 3.78", "unit": "s"},
      {"measurement": "Mean Latency Time In Seconds ± SEM, 30 minutes post treatment", "setting": "Sprague Dawley rats [2]; listed as GsAFII", "value": "17.82 ± 3.78", "unit": "s"},
      {"measurement": "Mean Latency Time In Seconds ± SEM, 60 minutes post treatment", "setting": "Sprague Dawley rats [2]", "value": 20.8, "unit": "s"},
      {"measurement": "Mean Latency Time In Seconds ± SEM, 60 minutes post treatment", "setting": "Sprague Dawley rats [2]; listed as GsAFII", "value": "20.8 ± 0.00", "unit": "s"},
      {"measurement": "confounding motor deficits or overt negative side effects", "setting": "Sprague Dawley rats [2]; 3 nmoles intrathecal", "value": "no indication"},
      {"measurement": "hyperalgesic, thermal-induced response", "setting": "Sprague Dawley rats [2]; 3 nmoles intrathecal", "value": "completely reversed"},
      {"measurement": "paw temperature", "setting": "Sprague Dawley rats [2]; 3 nmoles intrathecal", "value": "No significant reduction"},
      {"measurement": "paw volume", "setting": "Sprague Dawley rats [2]; 3 nmoles intrathecal", "value": "No significant reduction"},
      {"measurement": "MPE, von Frey threshold", "setting": "Sprague-Dawley rats; 2.33 nanomole (9.27 micrograms), 30 minutes post injection", "value": 83, "unit": "%"},
      {"measurement": "rats demonstrating maximal analgesic activity (100% MPE), von Frey", "setting": "Sprague-Dawley rats; 2.33 nanomole (higher dose), 30 minutes post injection", "value": 75, "unit": "%"},
      {"measurement": "MPE, von Frey threshold", "setting": "Sprague-Dawley rats; 583 picomole (2.32 micrograms), 30 minutes post injection", "value": 48, "unit": "%"}
    ]}
  ]
}
